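Growth conditions: 96-well plates. Treatment: test compound, 48 hours, 5 concentrations. Analysis: linear interpolation between bracketing concentrations; unreached endpoints set to highest concentration. GI50 = concentration required for 50% inhibition of growth. The concentration for full growth arrest is given as TGI.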 Activity calls are given as the source filed them. Rule as the data show it: active = GI50 below about 0.43 µM; inactive = the rest.
How the values were obtained:
Assay in all cases: NCI-60 cell line screen, 48 h
[1] = test system: A498 renal
[2] = test system: KM12 colon
[3] = test system: K-562 leukemia
[4] = test system: HOP-62 NSCLC
[5] = test system: SK-MEL-2 melanoma
[6] = test system: SNB-75 CNS
[7] = test system: SW-620 colon
[8] = test system: U251 CNS

SMILES	GI50 [1] [µM]	TGI [1] [µM]	GI50 [2] [µM]	TGI [2] [µM]	GI50 [3] [µM]	TGI [3] [µM]	GI50 [4] [µM]	TGI [4] [µM]	GI50 [5] [µM]	GI50 [6] [µM]	TGI [6] [µM]	GI50 [7] [µM]	TGI [7] [µM]	GI50 [8] [µM]	TGI [8] [µM]	TGI [5] [µM]	outcome [1]	outcome [4]	outcome [6]
COc1ccc2c(c1)C(=O)c1c-2n(CCCn2ccnc2)c(=O)c2cc([N+](=O)[O-])ccc12	< 0.01	0.184	< 0.0229	8.69	< 0.01	> 100	< 0.01	0.0119	0.245	< 0.0138	0.41	< 0.0111	> 39.9	< 0.01	0.166				
CC[C@@]1(c2ccccc2)C2=C(CC(C)(C)CC2=O)Nc2[nH]ncc21	16.7	56.3	> 100	> 100	> 100	> 100	> 100	> 100	> 100	14.9	> 100	> 100	> 100	> 100	> 100	> 100			
NC(=O)COC(=O)c1c(Cl)nc2sccn12		> 100		> 100		> 100		> 100			> 100		> 64.7		> 100	> 100			
CCCC(=O)OCC1OC(n2cnc3c(=S)nc[nH]c32)C(OC(=O)CCC)C1OC(=O)CCC (configuration not stated)	33.2	> 100	4.99	> 100	1.7	> 100	2.84	> 100	28.1	4.04	> 100	4.59	> 100	62	> 100	> 100			
O=C(O)CCNC1CCCCC1	> 100	> 100	> 100	> 100	> 100	> 100	> 100	> 100	> 100	> 100	> 100	> 100	> 100	> 100	> 100	> 100			
Cc1cc2c(cc1Cl)SC1=NN(C)S(=O)N1S2(=O)=O (configuration not stated)	99.5	> 100	> 100	> 100	> 100	> 100	> 100	> 100	> 100	58.7	> 100	> 100	> 100	> 100	> 100	> 100			
NC(=O)NS(=O)(=O)c1ccc(N2N=C(C(F)(F)F)CC2c2cc(C(F)(F)F)cc(C(F)(F)F)c2)cc1 (configuration not stated)	2.24	8.15	1.83	4.65	4.98	> 100	6.53	22.4	1.2	2.86	15.3	4.1	15.7	3.94	15.2	9.5			
CS(=O)(=O)c1ccc(-n2nc(C(F)(F)F)cc2OC2CCCC2)cc1	25.2	56.2	38.5	> 100	29.1	92.6	88	> 100	> 100	> 100	> 100	71.2	> 100	22.1	75	> 100			
C=C(C[C@](O)(C(=O)/C=C/c1ccc(Cl)cc1)C(=O)OC)c1ccccc1	11.6	23.8	1.81	4.24	2.12	8.8	2.72	9.03	13.3	8.43	21.8	2.05	5.04	1.85	3.74	27.1			
C#CCNC(=O)c1cccc2c1cc(C)n2-c1nc2c(c(NCc3ccccc3)n1)CCCC2	0.0218	0.0591	0.0231	0.065	0.0179		0.0308	0.114	0.023	0.0365	0.0872	0.0289	0.142	0.0254	0.0646	0.0627			
COc1ccc(C(=O)C#Cc2cnc(OC)nc2OC)cc1		35.1	56100	11.6	12100			30.7	36100		4.8	25200		58900	2.62		inactive	inactive	inactive
Cc1ccc(C(=O)N(CCCN)C(c2oc3cc(Cl)ccc3c(=O)c2Cc2ccccc2)C(C)C)cc1 (configuration not stated)	< 0.01		< 0.01	1.47	< 0.01	1.41	< 0.01	1.85	< 0.01	< 0.01	1.46	< 0.01	1.45	< 0.01	1.37				
Nc1nc(N(Cc2ccccc2)c2ccccc2)c2cn[nH]c2n1	3.03	9.23	3.23	> 100	2.49	> 100	3.47	> 100	3.14	2.47	> 100	3.93	> 100	4.35	> 100	> 100			
COc1ccc2c(c1)[n+](=O)c(C(=O)C/C(=N/OCCCc1ccccc1)C(=O)NC13CC4CC(CC(C4)C1)C3)c(C)n2[O-]		> 100		> 100		> 100		> 100			> 100		> 100		> 100	> 100			
Nc1nc2c(nnn2C2CC(O)C(CO)O2)c(=O)[nH]1 (configuration not stated)	8.22	> 48.1	5.39	> 100	4.04	> 100	7.91	> 93.9	20.2	7.59	> 100	3.74	> 100	9.66	> 100	> 100			
COC(=O)Nc1nc2ccc(Oc3ccc(NC(=O)Nc4cc(C(F)(F)F)ccc4F)cc3)cc2s1		> 25	0.0859	> 25	0.0202	> 25	16.7	> 25	> 5.02	6.76	> 23.8	9.85	> 25	13.6	> 25	> 25			

Source: PubChem BioAssay (NCI)
